# Where two headings read alike, the source gives them in different places. Bridge positions count the residues as written; N and C are the ends. Square brackets hold non-standard residues; d marks the D form. Peptide text beside a SMILES is read from it. * marks the point of attachment. X1 = CC[C@H](C)CCCCC(=O)*; Dab = NCC[C@H](N)C(=O)O; Dap = NC[C@H](N)C(=O)O
# What was measured:
# [1] = tested on: PA-1646, polymyxin-resistant clinical isolate of Pseudomonas aeruginosa; format: cell-based
# How it was run: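 Broth dilution MIC and bactericidal (MBC) testing per CLSI methods (M7-A8, M100-S20, M26-A) against polymyxin-resistant clinical P. aeruginosa isolate PA-1646. Compounds tested as trifluoroacetate salts, one as sulfate salt; values in mg/L.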
# [2] = tested on: Human Renal Proximal Tubule Epithelial cells (hRPTEC); assay: Cytotoxicity assay (LDH release), hRPTEC; format: cell-based
# How it was run: (§1)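 hRPTEC grown 72 h in REGM, then exposed to compounds at 100, 67, 44, 30, 20 and 13 micromolar for 24 h at 37° C, 5% CO2. LDH released into supernatant measured; TC50 (micromolar) derived. Compounds tested as trifluoroacetate salts unless otherwise noted.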
# [3] = Cytotoxicity assay (LDH release), hRPTEC; format: cell-based, human; conditions: human
# How it was run: as §1
# [4] = tested on: EC-1, mouse virulent strain of Escherichia coli; format: cell-based; conditions: E. coli EC-1; overnight incubation, lower of duplicate values; trifluoroacetate salt (Example 1 and PMB sulfate)
# How it was run: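 Broth dilution per CLSI with 2-fold concentration steps and overnight incubation. MIC is the lowest concentration visibly inhibiting growth versus drug-free control, run in duplicate with the lower value reported. Duplicates differing by >2-fold were repeated, and control strains and reference compounds had to fall within range.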
# [5] = tested on: AB-1649, polymyxin-resistant clinical isolate of Acinetobacter baumannii; format: cell-based
# How it was run: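 MIC and MBC were measured by CLSI broth dilution methods (M7-A8, M100-S20, M26-A) against a polymyxin-resistant clinical isolate and reported in mg/L. Compounds were tested as trifluoroacetate salts, with one exception tested as the sulfate.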
# [6] = tested on: PA-1646, polymyxin-resistant clinical isolate of Pseudomonas aeruginosa; format: cell-based; remark: listed apart in the source
# How it was run: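 Broth dilution MIC per CLSI with 2-fold concentration steps, read visually after overnight incubation as lowest concentration inhibiting growth; duplicates within 2-fold, lower value reported, with QC strains and reference compounds. Compounds tested as trifluoroacetate salts, polymyxin B as sulfate.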
# [7] = tested on: AB-3167, clinical isolate of Acinetobacter baumannii; format: cell-based; conditions: A. baumannii AB-3167; overnight incubation, lower of duplicate values; trifluoroacetate salt (Example 1 and PMB sulfate)
# How it was run: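 Broth dilution MIC per CLSI (M7-A8, M100-S20, M26-A for bactericidal), 2-fold dilution series, overnight incubation, visual read of lowest concentration inhibiting growth versus drug-free control. Duplicates run; lower value reported if within 2-fold, otherwise repeated. Compounds tested as trifluoroacetate salts; QC strains and reference compounds required in range.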
# [8] = tested on: AB-1649, polymyxin-resistant clinical isolate of Acinetobacter baumannii; format: cell-based; remark: listed apart in the source
# How it was run: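 Broth dilution MIC per CLSI against the polymyxin-resistant A. baumannii isolate, 2-fold dilutions, overnight incubation, visual read of lowest concentration inhibiting growth. Run in duplicate, lower value reported when within 2-fold; MBC per CLSI M26-A guideline.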
# [9] = tested on: Pseudomonas aeruginosa strain PA01; format: cell-based
# How it was run: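 CLSI broth dilution against P. aeruginosa PA01 with two-fold concentration steps and overnight incubation; MIC is lowest concentration visibly inhibiting growth versus drug-free control, in mg/L. Compounds tested as trifluoroacetate salts, in duplicate, lower value reported if within 2-fold; control organisms and reference compounds included.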
# [10] = tested on: KP-3700, ESBL+ clinical isolate of Klebsiella pneumoniae; assay: Minimum inhibitory concentration (MIC, CLSI), KP-3700; format: cell-based; conditions: K. pneumoniae KP-3700; overnight incubation, lower of duplicate values; trifluoroacetate salt (Example 1 and PMB sulfate)
# Protocol: (§2) Minimum bactericidal concentration (MBC, mg/L), minimum inhibitory concentration (MIC, mg/L), and human renal proximal tubule epithelial cell line cytotoxicity concentration 50% (hRPTEC, TC50, micromolar) for compounds of Formula I are listed in Table 2. The compounds of Formula I were tested as the corresponding trifluoroacetate salt except for Example 1 which was tested as the sulfate salt. For Table 2 below: PMB=polymyxin B as the sulfate salt (Bedford Laboratories, pharmaceutical grade); PMB1=polymyxin B1 as the trifluoroacetate salt; Nona=polymyxin B nonapeptide as the trifluoroacetate salt. PMB1 and Nona were prepared using the solid phase methodology described in the experimental section herein.
# (§3) The in vitro antibacterial activity of compounds of Formula I was evaluated by MIC testing according to Clinical and Laboratory Standards Institute (CLSI). See: Clinical and Laboratory Standards Institute. Methods for Dilution Antimicrobial Susceptibility Tests for Bacteria that Grow Aerobically; Approved Standard-Eighth Edition. CLSI document M7-A8 [ISBN 1-56238-689-1]. Clinical and Laboratory Standards Institute, 940 West Valley Road, Suite 1400, Wayne, Pa. 19087-1898 USA, 2006; also Clinical and Laboratory Standards Institute. Performance Standards for Antimicrobial Susceptibility Testing; Twentieth Informational Supplement. CLSI document M100-S20 [ISBN 1-56238-716-2]. Clinical and Laboratory Standards Institute. Methods for Determining Bactericidal Activity of Antimicrobial Agents; Approved Guideline. CLSI document M26-A (ISBN 1-56238-384-1). CLSI, 940 West Valley Road, Suite 1400, Wayne, Pa. 19087-1898 USA, 1999.
# (§4) The MIC determination is a standard laboratory method for evaluating the antibacterial activity of a compound. The MIC represents the lowest drug concentration that inhibits visible growth of bacteria following overnight incubation. […] Typically, the drug concentration range is broken down into 2-fold increments (e.g. 0.06 mg/L, 0.12 mg/L, 0.25 mg/L, 0.50 mg/L, 1.0 mg/L, etc.) and the various drug concentrations are all individually incubated overnight with approximately the same number of bacteria. The MIC is then determined by visually inspecting the drug effect at each concentration, and identifying the lowest drug concentration that has inhibited bacterial growth as compared to the drug free control. Typically, bacteria continue to grow at drug concentrations lower than the MIC and don't grow at concentrations at and above the MIC.
# (§5) The MIC values described in Table 2 below were derived from assays wherein each test compound was evaluated in duplicate. In cases where the duplicate values varied by 0-2-fold, the lower of the two values was reported below. Generally speaking, if the duplicate values varied by more than 2-fold, the assay was considered non-valid and was repeated until the variation between duplicate runs was ≦2-fold. In line with the CLSI guidelines referred to above, both control organisms and reference compounds were utilized in each MIC assay to provide proper quality control. MIC values generated with these control organisms and reference compounds were required to fall within a defined range for the assay to be considered valid and be included herein. Those skilled in the art will recognize that MIC values can and do vary from experiment to experiment. Generally speaking, it should be recognized that MIC values often vary +/−2-fold from experiment to experiment. While a single MIC is reported for each compound and each microorganism, the reader should not conclude that each compound was only tested once. Several of the compounds were subjected to multiple tests. The data reported in Table 2 is reflective of the compounds relative activity and different MICs may have been generated on these occasions in line with the guidelines described above.
# The following bacterial strains were used in these MIC determinations:
# KP-3700 is an ESBL+clinical isolate of Klebsiella pneumoniae obtained in 2006; and […]
# [11] = tested on: KP-5016, ESBL+ clinical isolate of Klebsiella pneumoniae (SHV-5); assay: Minimum inhibitory concentration (MIC, CLSI), KP-5016; format: cell-based; conditions: K. pneumoniae KP-5016; overnight incubation, lower of duplicate values; trifluoroacetate salt (Example 1 and PMB sulfate)
# Protocol: as §2, §3, §4, §5
# The following bacterial strains were used in these MIC determinations: […]
# [12] = PA-1646, polymyxin-resistant clinical isolate of
# [13] = AB-1649, polymyxin-resistant clinical isolate of
compound,measurement,setting,value
CC[C@H](C)CCCCC(=O)N[C@@H](CCN)C(=O)N[C@H](C(=O)N[C@@H](CN)C(=O)N[C@H]1CCNC(=O)[C@H]([C@@H](C)O)NC(=O)[C@H](CCN)NC(=O)[C@H](CCN)NC(=O)[C@H](CC(C)C)NC(=O)[C@@H](Cc2ccccc2)NC(=O)[C@H](CCN)NC1=O)[C@@H](C)O [Example 43] (X1-[Dab]T[Dap][Dab][Dab][dF]L[Dab][Dab]T; lactam 4-C),PA-1646 MBC,[1]; [12],2 µg/mL
same,reduced human renal cytotoxicity compared with PMB,[2],3-4 fold
same,CC50 at 24 h,[3],72 µM
same,EC-1 MIC,[4],0.125 µg/mL
same,AB-1649 MBC,[5]; [13],4 µg/mL
same,PA-1646 MIC,[6]; [12],1 µg/mL
same,AB-3167 MIC,[7],0.125 µg/mL
same,AB-1649 MIC,[8]; [13],4 µg/mL
same,PA01 MIC,[9]; strain,0.5 µg/mL
"polymyxin B [PMB, reference compound]",PA-1646 MBC,"[1]; P. aeruginosa PA-1646, tested as trifluoroacetate salt (Example 1 and PMB as sulfate salt)",32 µg/mL
same,CC50,"[2]; hRPTEC, 24 hours treatment, LDH release, Toxic Concentration 50%, read-out: hRPTEC TC50",20 µM
same,EC-1 MIC,[4],0.125 µg/mL
same,KP-3700 MIC,[10],0.25 µg/mL
same,KP-5016 MIC,[11],32 µg/mL
same,AB-1649 MBC,"[5]; A. baumannii AB-1649, tested as trifluoroacetate salt (Example 1 and PMB as sulfate salt)",8 µg/mL
same,PA-1646 MIC,"[6]; P. aeruginosa PA-1646, overnight incubation, lower of duplicate values, trifluoroacetate salt (Example 1 and PMB sulfate)",8 µg/mL
same,AB-3167 MIC,[7],0.25 µg/mL
same,AB-1649 MIC,"[8]; A. baumannii AB-1649, overnight incubation, lower of duplicate values, trifluoroacetate salt (Example 1 and PMB sulfate)",8 µg/mL
same,PA01 MIC,"[9]; P. aeruginosa PA01, overnight incubation, lower of duplicate values, trifluoroacetate salt (Example 1 and PMB sulfate)",0.5 µg/mL
